Experimental data taken from patent US20140161769A1, “METHODS FOR TREATING INFLAMMATORY AUTOIMMUNE DISORDERS” (Beth Israel Deaconess Medical Center, Inc., priority 2010, published 2014).

Key:
MRL/lpr mice = assay: Treatment of MRL/lpr mice with KN-93 (lupus nephritis; urine and kidney histopathology); type: in vivo, mouse
Procedure: FIG. 7A is a graph showing the weekly quantification of urinary protein and leukocytes of pre-disease 8-week-old MRL/lpr mice treated with either KN-93 (40 mg/kg) or PBS. The agent was administered by intraperitoneal injections three times a week, every other week, during an 8-week time period. The arrows indicate the administration of the treatment. FIG. 7B is a graph showing the weekly quantification of urinary protein and leukocytes of diseased 12-week-old MRL/lpr mice (n≧5 mice per group) treated with KN-93 or PBS. Treatment was administered three times a week during a 5-week time period. FIG. 7C is a series of representative images of glomerular, tubule-interstitial, and perivascular areas from 16-week-old MRL/lpr mice treated with PBS (upper panels) and KN-93 (stained with Periodic Acid Schiff). The photographs from the middle panels correspond to mice treated before the onset of proteinuria (8 week-old). The lower panels correspond to mice treated after the disease had been established. The magnification is ×40 (glomerular), ×10 (tubular), and ×20 (perivascular).
We recorded proteinuria and pyuria in CaMKIV-deficient and sufficient MRL/lpr mice from the 6th to the 24th week of age. The mice in each group were placed overnight in a Nalgene metabolic cage to collect urine. Urine was measured with Multistix 10SG reagent strips and analyzed by a Clinitek Status analyzer (Bayer Healthcare). Proteinuria increased to 3 g/L in MRL/lpr mice at the age of 14 weeks and remained at the same level thereafter. However, in MRL/lprCaMKIV−/− mice, proteinuria remained at 1 g/L throughout the observation period. The number of leukocytes in the urine increased to 500 μl at week 14 in MRL/lpr mice, whereas it remained less than 15 μl in MRL/lprCaMKIV−/− mice (FIG. 4A).
To rule out such possibility, we used KN-93, a well-known CaMKIV inhibitor (Tsung et al., J Exp Med. 204: 2913-2923, 2007; Sato et al., Nat Med. 12: 1410-1416, 2006; and Ilario et al., Blood 111: 723-731, 2008), to treat MRL/lpr mice and determine its effect on the expression of lupus nephritis. The agent was administered by intraperitoneal injections at a dose of 0.08 mg/mouse, three times a week. We treated MRL/lpr mice with PBS (control) or KN-93 either every other week from week 8 to week 16 (disease prevention) (FIG. 7A) or weekly from week 12 to week 16 (disease treatment) (FIG. 7B).
In the disease prevention experiment, KN-93 administration was started either before the onset of proteinuria, when the mice were 8 weeks old. These mice received the agent every other week. In the disease treatment experiment, the effectiveness of KN-93 in established disease was evaluated. KN-93 administration was started when mice were 12 weeks old and continued three times a week during 5 weeks. Mice of both experiments were sacrificed at the end of their 16th week of age.

[1] = system: Splenocytes isolated from MRL/lpr mice; assay: CD86 expression on CD19 positive B cells of MRL/lpr splenocytes (flow cytometry); type: cell-based, mouse; conditions: KN-93 (10 μM)
Procedure: Splenocytes were isolated from MRL/lpr mice and stimulated with LPS (1 μg/ml) or PBS for 24 hours. FIGS. 10A and 10C are bar graphs showing the expression of CD86 in LPS-stimulated cells (FIG. 10A) and unstimulated cells (FIG. 10C). A Kruskal-Wallis test was used for statistical analyses. Results are expressed as mean+SD CP=0.01; n=three 24-week-old mice per group). FIGS. 10B and 10D are representative histograms comparing CD86 expression on LPS-stimulated (FIG. 10B) and unstimulated splenocytes (FIG. 10D). Splenocytes were treated with KN-93 (10 μM) (right panel) or PBS (left panel) for 24 hours. Shaded areas represent isotype control staining.
We wished to determine whether CaMKIV deficiency suppresses CD86 expression in all types of antigen presenting cells (APC). Splenocytes were isolated from MRL/lpr and MRL/lprCaMKIV−/− mice and stimulated with LPS (1 μg/ml) or PBS for 24 hours. We stained cells with fluorochrome-conjugated antibodies against the major histocompatibility complex (MHC) class II (eBioscience) (all APCs), CD19 (B cells), CD11c (dendritic cells), and F4/80 (macrophages) (BioLegend). […]
Splenocytes isolated from MRL/lpr mice were stimulated with LPS (1 μg/ml) or PBS for 24 hours in the presence or absence of KN-93. CD19 positive B cells were analyzed for the expression of CD86. […]

macrophages = assay: Cytokine production in normal human macrophages; type: cell-based; conditions: supernatants from macrophages incubated with PBS or LPS, KN-93 vs PBS
Procedure: (§1) FIG. 15A is a bar graph showing IFN-γ levels in supernatants from human T cells incubated with PBS or CD3/28 and treated with either PBS (white bars) or with KN-93 (black bars). FIG. 15B are histograms comparing CD69 expression in human T cells incubated with PBS (left) or with CD3/28 (right). Data are shown for control (gray), treatment with PBS (dotted line), and treatment with KN-93 (solid line). FIG. 15C is a series of bar graphs showing […] (left), IL-6 (middle), and TNF-α(right) levels in supernatants from macrophages incubated with PBS or LPS and treated with either PBS (white bars) or with KN-93 (black bars). Normal human T cells and macrophages were treated with PBS (control) or KN-93. […] Furthermore, the activity of IL-6 in murine mesangial cells decreases in the absence of CaMKIV. Taken together, inhibition of CaMKIV by KN-93 or absence of CaMKIV (e.g., by genetic deficiency) decreases the expression of various pro-inflammatory cytokines, and inhibitors of CaMKIV could be used to treat disorders associated with one or more of such cytokines (e.g., autoimmune disorders).

primary mesangial cells [2] = assay: Western blot of CDK2 and cyclin D1 in mesangial cells; type: cell-based, mouse; conditions: mesangial cells from MRL/MPJ or MRL/lpr mice, immunoblot
Procedure: FIG. 16A is a series of histograms in unstimulated cells (left) and cells stimulated with PDGF (right). FIG. 16B is a series of immunoblots of protein extracts obtained from murine mesangial cells and immunoblotted with anti-CDK2 or anti-cyclin D1 antibodies. After isolation from MRL/MPJ or MRL/lpr mice, these cells were untreated, treated with KN-93, treated with PDGF, or treated with both KN-93 and PDGF. Briefly, four hundred thousand primary mesangial cells were incubated in 2 mL of RPMI 1640 with 10% FBS. Cells were plated in 6-well plates and made quiescent by serum starvation for 24 hours. Then, cells were treated with 20 ng/ml of PDGF-BB (PeproTech, Inc. Rocky Hill, N.J.) for 24 hours. In some experiments, cells were pretreated with KN-93 (20 μM) for 48 hours before the addition of PDGF-BB. For Western blot analysis, mesangial cells were homogenized in radioimmunoprecipitation assay (RIPA) buffer at 4° C. After centrifugation at 14,000 rpm for 30 min at 4° C., supernatant was collected and stored at −80° C. until use. The following antibodies were used for immunoblot assay: rabbit anti-CDK2, rabbit anti-cyclin D1 (Cell signaling) and rabbit anti-actin (Sigma).

primary mesangial cells [3] = assay: Mesangial cell proliferation (cell cycle analysis, flow cytometry); type: cell-based, mouse
Procedure: FIG. 16A is a series of histograms in unstimulated cells (left) and cells stimulated with PDGF (right). FIG. 16B is a series of immunoblots of protein extracts obtained from murine mesangial cells and immunoblotted with anti-CDK2 or anti-cyclin D1 antibodies. After isolation from MRL/MPJ or MRL/lpr mice, these cells were untreated, treated with KN-93, treated with PDGF, or treated with both KN-93 and PDGF. Briefly, four hundred thousand primary mesangial cells were incubated in 2 mL of RPMI 1640 with 10% FBS. Cells were plated in 6-well plates and made quiescent by serum starvation for 24 hours. Then, cells were treated with 20 ng/ml of PDGF-BB (PeproTech, Inc. Rocky Hill, N.J.) for 24 hours. In some experiments, cells were pretreated with KN-93 (20 μM) for 48 hours before the addition of PDGF-BB. For cell cycle analysis, mesangial cells were harvested with trypsin, washed twice with PBS, fixed in cold 95% ethanol, and stored at 4° C. until use. Before flow cytometric analysis, cells were washed with PBS and centrifuged, and the cell pellets were resuspended in a solution of RNAse (0.5 mg/ml) in PBS and incubate at 37° C. for 20 minutes. Then, propidium iodide (PI) (40 μg/ml) was added in PBS for 30 minutes. Stained cells were analyzed with a flow cytometer (model FACS Scan; BD Bioscience, Franklin Lakes, N.J.). […]

Normal human T cells = assay: IFN-γ production and CD69 expression in normal human T cells; type: cell-based
Procedure: as §1

[4] = kidneys of KN-93 treated MRL/lpr mice

COc1ccc(S(=O)(=O)N(CCO)c2ccccc2CN(C)CC=Cc2ccc(Cl)cc2)cc1 [KN-93, N-[2-[[[3-(4-chlorophenyl)-2-propenyl]methylamino]methyl]phenyl]-N-(2-hydroxyethyl)-4-methoxybenzenesulphonamide]
kidney pathology, determined histopathologically (MRL/lpr mice; 16-week-old MRL/lpr mice, KN-93 vs PBS): less kidney pathology | protein in the urine (proteinuria) (MRL/lpr mice; MRL/lpr mice, KN-93 i.p. 0.08 mg/mouse three times a week, both schemes (every other week, weeks 8-16; weekly, weeks 12-16), PBS-treated mice 3 g/L): less than 1 g/L | leukocytes in the urine (pyuria) (MRL/lpr mice; MRL/lpr mice, KN-93 i.p. 0.08 mg/mouse three times a week, both schemes, PBS-treated mice 500 leukocytes/μl): < 125 leukocytes/μl | glomerular crescents (MRL/lpr mice; [4]): did not have any glomerular crescents | glomerular damage, interstitial, and perivascular inflammatory cell infiltration (MRL/lpr mice; [4]): limited | expression of CD86 on stimulated cells ([1]; LPS (1 μg/ml) 24 hours): suppressed | expression of CD86 in non-LPS stimulated cells ([1]; PBS 24 hours): trend towards lower expression | production of IL-1β (macrophages): decreased production | production of IL-6 (macrophages): decreased production | production of TNF-α (macrophages): decreased production | presence of CD-K2 (primary mesangial cells [2]): decreased | presence of cyclin D1 (primary mesangial cells [2]): decreased | mesangial cell proliferation (primary mesangial cells [3]; with PDGF stimulation (20 ng/ml PDGF-BB 24 hours), pretreated with KN-93 (20 μM) 48 hours): suppressed | mesangial cell proliferation (primary mesangial cells [3]; without PDGF stimulation, KN-93 (20 μM) 48 hours): suppressed | expression of CD69 on T cells (Normal human T cells; normal human T cells, KN-93 vs PBS): decreased expression | production of IFN-γ (Normal human T cells; supernatants from human T cells incubated with PBS or CD3/28, KN-93 vs PBS): decreased production
